Counter-ions that a name gives are not always drawn.
Columns and labels:
[1] = system: mouse myopic models (−30D lens on right eye, 0D lens on left eye); experiment: Refractive power measurement in lens-induced myopia mice (infrared photorefractor); assay type: in vivo, mice (C57BL6/J)
Method: (§1) During the myopia induction period, eyedrops were administered once per day. Phosphate buffered saline (PBS) eyedrops were classified as a control group (Control), and α1-blocker eyedrops were classified as test groups.
(§2) The refractive index and the axial length of the mouse eyeball after three weeks were measured and the amounts of change were calculated. The refractive values were measured by using an infrared photorefractor for mice (fabricated by Prof Schaeffel of University of Tubingen). The more negative the refractive index, the more severe the myopia. The axial lengths were measured by using spectral domain optical coherence tomography (Envisu R4310, manufactured by Leica). The greater the value of the axial length, the greater the severity of myopia.
(§3) The eyedrops were administered once per day for the three weeks of the myopia induction period.
(§4) α1-blocker eyedrops having concentrations (mg of α1-blocker salt contained in 1 mL: mg/mL) of 0.001 (mg/mL), 0.01 (mg/mL), and 0.1 (mg/mL) were used as the eyedrops. The eyedrops were administered once per day for the three weeks of the myopia induction period. The control group was used with PBS eyedrops not containing an α1-blocker, and the α1-blocker eyedrops were eyedrops obtained by containing bunazosin hydrochloride at the predetermined concentrations.
(§5) The PBS (control group), bunazosin eyedrops (bunazosin of 0.01%, bunazosin hydrochloride of 0.01 mg/mL), silodosin eyedrops (silodosin of 0.01%, silodosin of 0.01 mg/mL), and tamsulosin eyedrops (tamsulosin of 0.01%, tamsulosin hydrochloride of 0.01 mg/mL) were used as the eyedrops. The eyedrops were administered once per day for the three weeks of the myopia induction period, as in Experiments 1 and 2. For the control group as well, PBS eyedrops not containing an α1-blocker were used, as in Experiments 1 and 2.

[2] = system: mouse myopic models (−30D lens on right eye, 0D lens on left eye); experiment: Axial length measurement in lens-induced myopia mice (spectral domain optical coherence tomography); assay type: in vivo, mice (C57BL6/J); settings: for myopia progression judged by axial length difference −30D vs 0D eyes: eyedrops 0.1 mg/mL once per day; for axial myopia progression judged by axial length difference −30D vs 0D eyes: Experiment 3, eyedrops 0.01% (0.01 mg/mL) once per day
Method: as §1, §2, §3, §4, §5

[3] = cited from earlier work
[4] = Experiment 1, eyedrops 0.1 mg/mL once per day for three weeks of myopia induction, amount of change
[5] = Experiment 1, eyedrops 0.1 mg/mL once per day for three weeks, amount of change
[6] = Experiment 1, eyedrops 0.1 mg/mL once per day, three weeks
[7] = Experiment 2, concentration 0.001 mg/mL
[8] = Experiment 2, concentration 0.001 mg/mL, once per day, three weeks
[9] = Experiment 2, concentration 0.01 mg/mL
[10] = Experiment 2, concentration 0.01 mg/mL, once per day, three weeks
[11] = Experiment 2, concentration 0.1 mg/mL
[12] = Experiment 2, concentration 0.1 mg/mL, once per day, three weeks
[13] = Experiment 3, eyedrops 0.01% (0.01 mg/mL) once per day, three weeks

Row | SMILES | refractive power, eyes with the −30D lens [1, 4] [D] | refractive power, eyes with the 0D lens [1, 5] [D] | myopia progression judged by refractive power difference −30D vs 0D eyes [1, 6] | myopia progression judged by refractive power difference −30D vs 0D eyes [1, 13] | axial length, eyes with the 0D lens [2, 5] [mm] | axial length, eyes with the −30D lens [2, 5] [mm] | myopia progression judged by axial length difference −30D vs 0D eyes ([2]; Experiment 1, three weeks) | axial myopia progression judged by axial length difference −30D vs 0D eyes ([2]; three weeks) | solubility with respect to water [3] | further results
1 | CCCC(=O)N1CCCN(c2nc(N)c3cc(OC)c(OC)cc3n2)CC1 [bunazosin] | −0.74±4.07 | 3.65±4.72 | progression of myopia was suppressed | progression of myopia was suppressed | 0.187±0.019 | 0.191±0.026 | progression of myopia was suppressed | progression of axial myopia was suppressed |  | myopia progression judged by refractive power [1, 7]: a sufficient myopia progression suppressing effect was not obtained; refractive power, eyes with the 0D lens [1, 8]: −0.33±3.47 D; refractive power, eyes with the −30D lens [1, 8]: −10.90±4.13 D; myopia progression judged by refractive power [1, 9]: progression of myopia was suppressed; refractive power, eyes with the 0D lens [1, 10]: −0.83±3.20 D; refractive power, eyes with the −30D lens [1, 10]: −6.92±4.08 D; myopia progression judged by refractive power [1, 11]: progression of myopia was suppressed; refractive power, eyes with the 0D lens [1, 12]: 3.19±3.76 D; refractive power, eyes with the −30D lens [1, 12]: −1.26±3.28 D; myopia progression judged by axial length [2, 7]: showed an elongation in axial length; axial length, eyes with the 0D lens [2, 8]: 0.196±0.008 mm; axial length, eyes with the −30D lens [2, 8]: 0.228±0.017 mm; myopia progression judged by axial length [2, 9]: progression of myopia was suppressed; axial length, eyes with the 0D lens [2, 10]: 0.192±0.021 mm; axial length, eyes with the −30D lens [2, 10]: 0.209±0.024 mm; myopia progression judged by axial length [2, 11]: progression of myopia was suppressed; axial length, eyes with the 0D lens [2, 12]: 0.180±0.028 mm; axial length, eyes with the −30D lens [2, 12]: 0.189±0.024 mm
2 | COc1cc2nc(N3CCN(C(=O)C4COc5ccccc5O4)CC3)nc(N)c2cc1OC (stereo not drawn) [doxazosin hydrochloride] |  |  |  |  |  |  |  |  | approximately 5 mg/mL | 
3 | COc1cc2nc(N3CCN(C(=O)c4ccco4)CC3)nc(N)c2cc1OC [prazosin] |  |  |  |  |  |  |  |  | 1.4 mg/mL | 
4 | C[C@H](Cc1cc2c(c(C(N)=O)c1)N(CCCO)CC2)NCCOc1ccccc1OCC(F)(F)F [silodosin] |  |  |  | progression of myopia was suppressed |  |  |  | progression of axial myopia was suppressed |  | 
5 | CCOc1ccccc1OCCN[C@H](C)Cc1ccc(OC)c(S(N)(=O)=O)c1 [tamsulosin] |  |  |  | progression of myopia was suppressed |  |  |  | progression of axial myopia was suppressed |  | 
6 | COc1ccccc1N1CCN(CCCNc2cc(=O)n(C)c(=O)n2C)CC1 [urapidil] | −5.51±6.29 | 0.33±7.07 | progression of myopia was suppressed |  | 0.217±0.014 | 0.233±0.020 | progression of myopia was suppressed |  | 25 mg/mL | 

— patent US20250222008A1, “EYEDROPS CONTAINING AN ALPHA1-BLOCKER FOR INHIBITING MYOPIA PROGRESSION” (TSUBOTA LABORATORY, INC., priority 2022, published 2025)
